Laboratory results taken from the supplement of paper PMC11061612.

Assays:
Experiment in all cases: combination Emax (second highest fraction inhibited in the dose matrix, 72 h); higher = more inhibition; extreme values may be limits of the assay
[1] = system: HDQ-P1 (Breast Carcinoma)
Method in brief: (§1)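 After 24 hours at 37°C and 5% CO2 in 1536-well plates, cells in DMEM/F12 or RPMI plus 10% FBS received two-drug dose matrices for 72 hours. Viability came from CellTiter-Glo 2.0 luminescence and was scaled as inhibition, anchored at 0 by vehicle wells and at 1 by blank wells. Combination Emax is taken as the second-highest inhibition in the matrix, and Bliss excess as the observed combination effect less EA + EB − EA·EB, with EA and EB the single-agent effects.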

[2] = system: KM12 (Colorectal Carcinoma)
Method in brief: as §1

[3] = system: SW1417 (Colorectal Carcinoma)
Method in brief: as §1

[4] = system: GR-ST (B-Lymphoblastic Leukemia)
Method in brief: as §1

[5] = system: BFTC-905 (Bladder Carcinoma)
Method in brief: as §1

[6] = system: L-540 (Hodgkin's Lymphoma)
Method in brief: as §1

[7] = system: SR (Other Blood Carcinomas)
Method in brief: as §1

LN-18 (Glioblastoma) = system: LN-18 (Glioblastoma)
Method in brief: as §1

[8] = system: KARPAS-45 (T-Lymphoblastic Leukemia)
Method in brief: as §1

MEL-JUSO (Melanoma) = system: MEL-JUSO (Melanoma)
Method in brief: as §1

[9] = system: SU-DHL-8 (B-Cell Non-Hodgkin's Lymphoma)
Method in brief: as §1

CHP-212 (Neuroblastoma) = system: CHP-212 (Neuroblastoma)
Method in brief: as §1

[10] = system: BL-41 (Burkitt's Lymphoma)
Method in brief: as §1

NCI-H2818 (Mesothelioma) = system: NCI-H2818 (Mesothelioma)
Method in brief: as §1

ES8 (Ewing's Sarcoma) = system: ES8 (Ewing's Sarcoma)
Method in brief: as §1

[11] = system: MS751 (Cervical Carcinoma)
Method in brief: as §1

[12] = system: KYSE-180 (Esophageal Squamous Cell Carcinoma)
Method in brief: as §1

[13] = system: KCL-22 (Chronic Myelogenous Leukemia)
Method in brief: as §1

[14] = system: PANC-08-13 (Pancreatic Carcinoma)
Method in brief: as §1

[15] = system: HL-60 (Acute Myeloid Leukemia)
Method in brief: as §1

SMILES | combination Emax [1] | combination Emax [2] | combination Emax [3] | combination Emax [4] | combination Emax [5] | combination Emax [6] | combination Emax [7] | combination Emax (LN-18 (Glioblastoma)) | combination Emax [8] | combination Emax (MEL-JUSO (Melanoma)) | combination Emax [9] | combination Emax (CHP-212 (Neuroblastoma)) | combination Emax [10] | combination Emax (NCI-H2818 (Mesothelioma)) | combination Emax (ES8 (Ewing's Sarcoma)) | combination Emax [11] | combination Emax [12] | combination Emax [13] | combination Emax [14] | combination Emax [15]
C=CCn1c(=O)c2cnc(Nc3ccc(N4CCN(C)CC4)cc3)nc2n1-c1cccc(C(C)(C)O)n1 [AZD1775] + O=C(c1cc(Cc2n[nH]c(=O)c3ccccc23)ccc1F)N1CCN(C(=O)C2CC2)CC1 [Olaparib] (first compound max 1 µM, partner max 10 µM) | 0.517 | 0.748 | 0.564 | 0.806 | 0.55 | 0.946 | 0.995 | 0.217 | 0.847 | 0.401 | 0.877 | 0.831 | 1 | 0.415 | 0.829 | 0.215 | 0.774 | 0.882 | 0.329 | 0.36
CC1(C)CCC(CN2CCN(c3ccc(C(=O)NS(=O)(=O)c4ccc(NCC5CCOCC5)c([N+](=O)[O-])c4)c(Oc4cnc5[nH]ccc5c4)c3)CC2)=C(c2ccc(Cl)cc2)C1 [Venetoclax] + CN(C)CCCOc1ccc(-c2ccc3ncc4c(c3c2)n(C2CCOCC2)c(=O)n4C)cn1 [AZD0156] (first compound max 1 µM, 7x7, partner max 1 µM) | 0.139 | 0.17 | 0.266 | 0.704 | 0.588 | 0.886 | 0.907 | 0.329 | 0.478 | 0.233 | 0.334 | 0.17 | 0.163 | 0.284 | 0.869 | 0.198 | 0.155 | 0.212 | 0.189 | 0.71
CC1(C)CCC(CN2CCN(c3ccc(C(=O)NS(=O)(=O)c4ccc(NCC5CCOCC5)c([N+](=O)[O-])c4)c(Oc4cnc5[nH]ccc5c4)c3)CC2)=C(c2ccc(Cl)cc2)C1 [Venetoclax] + C1CN(CCC1(C(=O)N[C@@H](CCO)C2=CC=C(C=C2)Cl)N)C3=NC=NC4=C3C=CN4 [Capivasertib] (first compound max 1 µM, 7x7, partner max 3 µM) | 0.205 | 0.501 | 0.193 | 0.696 | 0.193 | 0.638 | 0.835 | 0.365 | 0.81 | 0.204 | 0.254 | 0.152 | 0.252 | 0.175 | 0.532 | 0.138 | 0.312 | 0.183 | 0.189 | 0.781
Cn1cnc2c(F)c(Nc3ccc(Br)cc3Cl)c(C(=O)NOCCO)cc21 [Selumetinib] + CCN(CCO)CCCOc1ccc2c(Nc3cc(CC(=O)Nc4cccc(F)c4)[nH]n3)ncnc2c1 [AZD2811] (first compound max 10 µM, 7x7, partner max 1 µM) | 0.393 | 0.676 | 0.559 | 0.316 | 0.781 | 0.194 | 0.942 | 0.34 | 0.926 | 0.427 | 0.354 | 0.972 | 0.629 | 0.168 | 0.996 | 0.639 | 0.103 | 0.593 | 0.22 | 0.918
Cc1c2c(nn1C)CSCc1cc(n(C)n1)CSc1cc(c3ccccc3c1)OCCCc1c(C(=O)O)n(C)c3c-2c(Cl)ccc13 [AZD5991] + C=CCn1c(=O)c2cnc(Nc3ccc(N4CCN(C)CC4)cc3)nc2n1-c1cccc(C(C)(C)O)n1 [AZD1775] (first compound max 1 µM, partner max 1 µM) | 0.579 | 0.875 | 0.542 | 0.791 | 0.673 | 1 | 0.923 | 0.602 | 1 | 0.749 | 1 | 0.916 | 1 | 0.519 | 0.717 | 0.9 | 0.95 | 0.969 | 0.379 | 1
CN(CCO)CC[C@H](CSc1ccccc1)Nc1ccc(S(=O)(=O)NC(=O)c2ccc(N3CCC([C@@H](O)c4ccccc4-c4ccc(Cl)cc4)CC3)cc2)cc1S(=O)(=O)C(F)(F)F [AZD4320] + C1CN(CCC1(C(=O)N[C@@H](CCO)C2=CC=C(C=C2)Cl)N)C3=NC=NC4=C3C=CN4 [Capivasertib] (first compound max 1 µM, 7x7, partner max 3 µM) | 0.584 | 0.565 | 0.709 | 0.402 | 0.0682 | 0.279 | 0.49 | 0.298 | 0.987 | 0.139 | 0.916 | 0.176 | 0.215 | 0.184 | 0.493 | 0.132 | 0.32 | 0.35 | 0.422 | 0.873
